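96-well plates; 48 h exposure; 5 concentrations. Endpoints by linear interpolation between flanking doses. Not reached: highest tested concentration assigned. GI50: concentration for 50% inhibition of growth. TGI denotes the concentration required for complete inhibition of growth.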

Among the test systems are HOP-92 NSCLC; K-562 leukemia; KM12 colon; MOLT-4 leukemia; RXF 393 renal; SK-MEL-28 melanoma; SNB-75 CNS; UACC-62 melanoma; UO-31 renal; MCF7 breast; RPMI-8226 leukemia; SK-MEL-5 melanoma; A498 renal; MDA-MB-231 breast.
Assay in all cases: NCI anticancer screen, dose series, 48 h

Turning to `C/C(=N\NC(=O)c1ccccc1O)c1cccc(/C(C)=N/NC(=O)c2ccccc2O)n1.O=S(=O)([O-])[O-].[Fe+2]`, the TGI in the assay on HOP-92 NSCLC, in the assay on K-562 leukemia, in the assay on KM12 colon, in the assay with MOLT-4 leukemia, in the assay on RXF 393 renal and with SK-MEL-28 melanoma was > 100 µM in each case. Further, the TGI in the assay with SNB-75 CNS, in the assay with UACC-62 melanoma and in the assay with UO-31 renal was > 100 µM throughout. For the same compound, the GI50 in the assay with SK-MEL-28 melanoma and in the assay with UO-31 renal was > 100 µM throughout.
Turning to `C=C1C(=O)O[C@H]2C1C[C@@H](OC(C)=O)/C(C)=C/CC[C@@]1(C)O[C@H]21` (some centres undefined), the TGI was determined as 32.4 µM with HOP-92 NSCLC; 39.5 µM in the assay on K-562 leukemia; 44.2 µM in the assay on KM12 colon; 23.4 µM in the assay with MCF7 breast; 9.7 µM with MOLT-4 leukemia; 13.6 µM with RPMI-8226 leukemia. In addition, the TGI with RXF 393 renal was 20.2 µM; in the assay on SK-MEL-28 melanoma, 24.9 µM; with SK-MEL-5 melanoma, 18.4 µM; in the assay with SNB-75 CNS, 62.7 µM; with UACC-62 melanoma, 15.6 µM; with UO-31 renal, 17 µM.
In the case of `COc1ccc(-c2c3c(n(C4OC(CO)C(O)C(O)C4O)c(=S)c2C#N)CCCC3)cc1` (centres undefined), the TGI in the assay on A498 renal, in the assay with KM12 colon, in the assay on MCF7 breast, in the assay with MDA-MB-231 breast, in the assay with MOLT-4 leukemia and with RXF 393 renal was > 100 µM in each case. In addition, the figures for the TGI in the assay with SK-MEL-5 melanoma, in the assay with SNB-75 CNS and in the assay on UACC-62 melanoma were > 100 µM, 18.7 µM and > 100 µM, respectively.
As to `COc1cc2c(c(OC)c1OC)-c1ccc(SC)c(=O)cc1[C@@H](O)CC2`, the GI50 in the assay with HOP-92 NSCLC was > 100 µM; in the assay with RXF 393 renal, > 100 µM; in the assay with SK-MEL-28 melanoma, > 100 µM; in the assay with SK-MEL-5 melanoma it was 0.000311 µM. Besides, the TGI in the assay with HOP-92 NSCLC, in the assay on K-562 leukemia, in the assay on MCF7 breast, in the assay on MOLT-4 leukemia, in the assay with RPMI-8226 leukemia and in the assay on RXF 393 renal was > 100 µM throughout. Moreover, the TGI with SK-MEL-28 melanoma, in the assay with SNB-75 CNS, with UACC-62 melanoma and in the assay with UO-31 renal was > 100 µM in each case.
In the case of `O=C(N/N=C/c1cc(Br)cc(Br)c1[O-])c1ccccc1O.O=C(N/N=C/c1cc(Br)cc(Br)c1[O-])c1ccccc1O.[Zn+2]`, the TGI in the assay with HOP-92 NSCLC was 5.09 µM; in the assay on KM12 colon, 15.9 µM; in the assay with MOLT-4 leukemia, > 100 µM; in the assay with RXF 393 renal, 11.9 µM; in the assay on SK-MEL-28 melanoma, 11.5 µM; in the assay with SK-MEL-5 melanoma, 2.58 µM. The TGI is 18.8 µM with SNB-75 CNS, 2.34 µM in the assay on UACC-62 melanoma and 10.6 µM with UO-31 renal.
Turning to `O=C1NN(Cc2ccccc2)C(=O)N2CCC[C@@H]12`, the TGI with A498 renal, in the assay on HOP-92 NSCLC, in the assay on KM12 colon, in the assay on MCF7 breast, in the assay on MDA-MB-231 breast and with MOLT-4 leukemia was > 100 µM each time. The TGI in the assay with RXF 393 renal, in the assay on SK-MEL-28 melanoma, in the assay on SK-MEL-5 melanoma and with UACC-62 melanoma was > 100 µM throughout.
Take `COc1nc(N)c(NC(C)=O)c(=O)n1C`: the TGI with A498 renal, with HOP-92 NSCLC, in the assay with K-562 leukemia, in the assay with KM12 colon, with MOLT-4 leukemia and in the assay on RPMI-8226 leukemia was > 100 µM each time. In addition, the TGI with RXF 393 renal, in the assay on SK-MEL-28 melanoma, with SNB-75 CNS and with UO-31 renal was > 100 µM each time.
On to `C=C(C(=O)OC)[C@@H]1C[C@@H](OC(C)=O)C2=C[C@H](C[C@@]3(C)O[C@@H]3C3=CC(C)=C(O3)[C@H]1OC(C)=O)OC2=O`, for which the TGI in the assay with A498 renal was 33.8 µM; in the assay with K-562 leukemia, 24.9 µM; in the assay with KM12 colon, 43.7 µM; in the assay on MCF7 breast, 35.3 µM; in the assay with MDA-MB-231 breast, 44.1 µM; in the assay with MOLT-4 leukemia it was 6.72 µM. The TGI in the assay with RPMI-8226 leukemia is 21.4 µM; in the assay on RXF 393 renal it was 44 µM; in the assay on SK-MEL-28 melanoma, 33.2 µM; in the assay on SK-MEL-5 melanoma it was 29.7 µM; in the assay on SNB-75 CNS, > 100 µM; with UACC-62 melanoma, 40.9 µM. In the assay with UO-31 renal, this compound had a TGI of 36.3 µM.
Turning to `COc1cc(C2(c3ncc[nH]3)SSSCC2O)ccc1O` (centres undefined), the TGI in the assay with A498 renal was > 100 µM; with HOP-92 NSCLC it was 58.3 µM; with K-562 leukemia it was > 56.5 µM; with KM12 colon, > 100 µM; in the assay on MCF7 breast, > 100 µM; in the assay on MOLT-4 leukemia, > 54.7 µM. Further, the TGI is > 100 µM in the assay on RPMI-8226 leukemia; 89.4 µM in the assay on RXF 393 renal; > 100 µM with SK-MEL-28 melanoma; > 100 µM in the assay on SK-MEL-5 melanoma; > 100 µM with SNB-75 CNS; > 51.2 µM in the assay with UACC-62 melanoma. Moreover, the TGI in the assay with UO-31 renal is > 100 µM.
In the case of `CC1C2C=C(O)C(=O)C(C2=O)C1c1ccccc1` (centres undefined), the TGI in the assay on A498 renal, in the assay with HOP-92 NSCLC, with K-562 leukemia, with KM12 colon, in the assay with MOLT-4 leukemia and in the assay on RPMI-8226 leukemia was > 100 µM in each case. The TGI in the assay with RXF 393 renal, in the assay with SK-MEL-28 melanoma, in the assay with SK-MEL-5 melanoma, in the assay with SNB-75 CNS, with UACC-62 melanoma and in the assay on UO-31 renal was > 100 µM each time.
As for `COC(=O)CCNC(=O)OCc1ccccc1`, the TGI in the assay with A498 renal, with K-562 leukemia, in the assay on KM12 colon, with MCF7 breast, with MDA-MB-231 breast and in the assay on MOLT-4 leukemia was > 100 µM in each case. The TGI in the assay with RPMI-8226 leukemia, in the assay on SK-MEL-28 melanoma, in the assay on SK-MEL-5 melanoma, in the assay on SNB-75 CNS, in the assay with UACC-62 melanoma and with UO-31 renal was > 100 µM in each case.
Turning to `Nc1ncnc2c1ncn2C1CCC(CP(=O)(O)O)C1` (centres undefined), the TGI with KM12 colon, in the assay with MCF7 breast, in the assay with MDA-MB-231 breast, in the assay on RPMI-8226 leukemia, in the assay on RXF 393 renal and in the assay on SK-MEL-28 melanoma was > 100 µM throughout. The TGI with SK-MEL-5 melanoma, in the assay on UACC-62 melanoma and with UO-31 renal was > 100 µM in each case.

The values above are taken from PubChem BioAssay (NCI).
